What was measured:
Selisistat + Luminespib = compound: C1CC(C2=C(C1)C3=C(N2)C=CC(=C3)Cl)C(=O)N [Selisistat] + CCNC(=O)c1noc(-c2cc(C(C)C)c(O)cc2O)c1-c1ccc(CN2CCOCC2)cc1 [Luminespib] (partner 0.01 µM); assay: relative viability (nuclei count vs DMSO), 5 days (fraction); higher = more cells survive
Method in brief: (§1)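 Lung cancer cell lines in 1536-well plates got either a single drug or a fixed anchor-drug dose together with five library-drug doses (not always all listed) in √10 steps, by pin tool, on the day after seeding. Nuclei were counted after 5 days, and relative viability is the treated-to-vehicle ratio of nuclei counts. Values are medians of duplicate plates.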

Selisistat + Dasatinib = compound: C1CC(C2=C(C1)C3=C(N2)C=CC(=C3)Cl)C(=O)N [Selisistat] + Cc1nc(Nc2ncc(C(=O)Nc3c(C)cccc3Cl)s2)cc(N2CCN(CCO)CC2)n1 [Dasatinib] (partner 0.075 µM); assay: as above
Method in brief: as §1

Cell Line	relative viability (Selisistat + Luminespib; first compound 0.4 µM)	relative viability (Selisistat + Luminespib; first compound 1.265 µM)	relative viability (Selisistat + Luminespib; first compound 4 µM)	relative viability (Selisistat + Luminespib; first compound 12.65 µM)	relative viability (Selisistat + Luminespib; first compound 40 µM)	relative viability (Selisistat + Dasatinib; first compound 0.4 µM)	relative viability (Selisistat + Dasatinib; first compound 1.265 µM)	relative viability (Selisistat + Dasatinib; first compound 4 µM)	relative viability (Selisistat + Dasatinib; first compound 12.65 µM)	relative viability (Selisistat + Dasatinib; first compound 40 µM)
COR-L23	0.709	0.715	0.641	0.655	0.61	0.523	0.583	0.579	0.529	0.494
COR-L 105	0.464	0.608		0.909	0.775	0.339	0.357		0.297	0.32
LK-2	0.193	0.161	0.182	0.198	0.188	0.211	0.307	0.322	0.266	0.287
201T	1.14	1.12	0.983	1.04	1.01	0.588	0.551	0.581	0.528	0.534
HCC-44	1.05			1.12	1.16					
NCI-H596	0.981	0.938	1.08	0.668	0.775	0.673	0.53	0.493	0.707	0.545
H3255	0.807	0.79	0.948	0.773	0.819	0.385	0.369	0.309	0.331	0.428
NCI-H647	0.119	0.205	0.146	0.111	0.15	0.229	0.186	0.176	0.154	0.218
NCI-H2023	0.664	0.633	0.648	0.628	0.732	0.495	0.497	0.524	0.539	0.512
NCI-H23	0.188	0.203		0.204	0.197	0.784	0.95	0.571	0.8	0.772
NCI-H1944	0.743	0.58		0.653	0.615	0.24	0.205		0.22	0.2
NCI-H1793	0.185	0.166		0.217	0.234	0.359	0.394		0.426	0.344
NCI-H520	0.233	0.255	0.232	0.233	0.206	0.185	0.201	0.327	0.216	0.195
NCI-H460	0.0268	0.0346	0.0301	0.0377	0.0409	0.61	0.513	0.196	0.478	0.477
EKVX	0.844	0.894	0.814	0.934	0.877	0.575	0.509		0.409	0.392
NCI-H358	0.435	0.341		0.469	0.471	0.201	0.158	0.114	0.235	0.226
EPLC-272H	0.213	0.409		0.32	0.197	0.352	0.33		0.369	0.381
NCI-H1563	0.473	0.523	0.54	0.528	0.541	0.496	0.443	0.319	0.438	0.549

Cell Line	relative viability (Selisistat + Luminespib; first compound 0.4 µM)	relative viability (Selisistat + Luminespib; first compound 1.265 µM)	relative viability (Selisistat + Luminespib; first compound 4 µM)	relative viability (Selisistat + Luminespib; first compound 12.65 µM)	relative viability (Selisistat + Luminespib; first compound 40 µM)	relative viability (Selisistat + Dasatinib; first compound 0.4 µM)	relative viability (Selisistat + Dasatinib; first compound 1.265 µM)	relative viability (Selisistat + Dasatinib; first compound 4 µM)	relative viability (Selisistat + Dasatinib; first compound 12.65 µM)	relative viability (Selisistat + Dasatinib; first compound 40 µM)
NCI-H1395	0.871	0.682	0.702	0.66	0.455	0.468	0.426	0.407	0.402	0.389
NCI-H2126	0.929	0.972	0.872	0.947	0.965	0.705	0.597	0.525	0.601	0.616
LXF-289	0.601	0.565	0.696	0.686	0.673	0.286	0.239	0.305	0.245	0.303
NCI-H2009	1.07	1.05		0.944	0.944	0.323	0.267	0.208	0.239	0.241
SW 900	0.175	0.175	0.179	0.16	0.177	0.664	0.409	0.641	0.496	0.791
NCI-H2405	0.745	0.691	0.556	0.659	0.766	0.221	0.189	0.178	0.204	0.276
NCI-H1755	0.415	0.315	0.619	0.31	0.377	0.474	0.476	0.418	0.419	0.414
HCC-78						0.486	0.628	0.293	0.421	0.414
LOU-NH91	0.269	0.322	0.348	0.336	0.406	0.611	0.54	0.515	0.534	0.598
NCI-H3122	0.0986	0.102	0.1	0.115	0.088	0.999	0.736	0.639	0.842	0.791
HCC-827	0.619	0.6	0.482	0.575	0.832	0.393	0.38	0.306	0.421	0.301
SK-LU-1	0.202	0.176	0.189	0.213	0.227	0.166	0.176	0.186	0.191	0.184
NCI-H1975	0.147	0.301	0.168	0.131	0.337	0.346	0.383	0.195	0.314	0.345
NCI-H1651	1.06	0.827	0.836	0.848	0.802	0.434	0.378	0.359	0.348	0.34
NCI-H441	0.294	0.382	0.349	0.339	0.344	0.623	0.671	0.427	0.549	0.62
LCLC-103H	1.06	0.936	0.926	0.863	1.06	0.527	0.475	0.456	0.507	0.548
LCLC-97TM1	0.74	0.679		0.619	0.724	0.8	0.887		0.889	0.944
NCI-H727	0.389	0.231		0.268	0.349	0.468	0.419		0.454	0.498

From the supplement of paper PMC10307832
